Our source for the activity and Activity values is US8501713B2, “Drug combinations for the treatment of duchenne muscular dystrophy” (Summit Corporation PLC, priority 2007, dated 2013).

Molecules are shown by their SMILES. Bounds are passed on as bounds.

One test relates to Utrophin A promoter linked to a luciferase reporter gene. The test can be described thus: Luciferase reporter assay (murine H2K cells). The test is classed as cell-based. As to conditions: Mus musculus, H2K mdx, luciferase level relative to control; H2K/mdx/Utro A reporter cells; compound 10 μM final concentration; read-out: Activity. The procedure, abridged:
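Compound at 10 μM final was applied for 48 hrs to plated H2K mdx myoblasts (33° C, 10% CO2, interferon-containing medium) bearing a luciferase gene under the utrophin A promoter. Luminescence from lysed cells served as read-out.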
Take `CN(C)c1ccc(C(=O)Nc2ccc3oc(-c4ccc(Cl)cc4)nc3c2)cc1` [Example 93, N-(2-(4-chlorophenyl)benzo[d]oxazol-5-yl)-4-(dimethylamino)benzamide]: the activity at 10 µM was under 200%.

For the compound `Nc1ccc2nc(-c3ccc(Cl)c(Cl)c3)oc2c1` [Example 369, 2-(3,4-dichlorophenyl)benzo[d]oxazol-6-amine], the activity at 10 µM was over 401%.

With `Cc1cc2nc(-c3ccc(Cl)cc3Cl)oc2cc1C` [Example 224, 2-(2,4-dichlorophenyl)-5,6-dimethylbenzo[d]oxazole], the activity at 10 µM was over 401%.

Consider `CCS(=O)(=O)c1ccc2oc(-c3ccc4ccccc4n3)nc2c1` [Example 422, 5-(ethylsulfonyl)-2-(quinolin-2-yl)benzo[d]oxazole], for which the activity at 10 µM was over 401%.

Consider `CCCC(=O)Nc1ccc2oc(-c3cccnc3)nc2c1` [Example 54, N-(2-(pyridin-3-yl)benzo[d]oxazol-5-yl)butyramide], for which the activity at 10 µM was under 200%.

In the case of `Cc1ccc2nc(-c3ccc(Cl)cc3)oc2c1` [Example 457, 2-(4-Chlorophenyl)-6-methylbenzo[d]oxazole], the activity at 10 µM is over 401%.

As for `CC(C)(C)C(=O)Nc1ccc2oc(-c3ccc(Cl)cc3)nc2c1` [Example 210, N-(2-(4-chlorophenyl)benzo[d]oxazol-5-yl)pivalamide], the activity at 10 µM is 201 to 300%.

As for `c1ccc2cc(-c3nc4ccccc4o3)ccc2c1` [Example 450, 2-(Naphthalen-2-yl)benzo[d]oxazole], the activity at 10 µM is over 401%.

For `CC(C)C(=O)Nc1ccc2nc(-c3cccc(Cl)c3Cl)oc2c1` [Example 354, N-(2-(2,3-dichlorophenyl)benzo[d]oxazol-6-yl)isobutyramide], the activity at 10 µM lay within 301 to 400%.

On to `Cc1ccc(-c2nc3c([N+](=O)[O-])cccc3o2)cc1` [Example 189, 4-nitro-2-p-tolylbenzo[d]oxazole], for which the activity at 10 µM is under 200%.

As for `CC(C)CNc1ccc2oc(-c3ccc(Cl)cc3)nc2c1` [Example 183, 2-(4-chlorophenyl)-N-isobutylbenzo[d]oxazol-5-amine], the activity at 10 µM lay within 301 to 400%.

For the compound `Cc1ccc(-c2nc3cc(C(N)=O)ccc3o2)cc1` [Example 218, 2-p-tolylbenzo[d]oxazole-5-carboxamide], the activity at 10 µM is over 401%.

For `CC(C)C(=O)Nc1ccc2oc(-c3cccc(F)c3)nc2c1` [Example 245, N-(2-(3-fluorophenyl)benzo[d]oxazol-5-yl)isobutyramide], the activity at 10 µM lay in the range of 301 to 400%.

Turning to `CC(C)C(=O)Nc1ccc2oc(-c3ccc4cc(Br)ccc4c3)nc2c1` [Example 413, N-(2-(6-bromonaphthalen-2-yl)benzo[d]oxazol-5-yl)isobutyramide], the activity at 10 µM was under 200%.

For `Nc1ccc2oc(-c3ccccc3O)nc2c1` [Example 38, 2-(5-aminobenzo[d]oxazol-2-yl)phenol], the activity at 10 µM was 301 to 400%.

Take `CC(C)C(=O)Nc1cc2oc(-c3ccc(Cl)cc3)nc2cc1Cl` [Example 347, N-(5-chloro-2-(4-chlorophenyl)benzo[d]oxazol-6-yl)isobutyramide]: the activity at 10 µM lay in the range of 201 to 300%.

For `O=C(Nc1ccc2oc(-c3ccc(Cl)cc3)nc2c1)C(F)(F)F` [Example 211, N-(2-(4-chlorophenyl)benzo[d]oxazol-5-yl)-2,2,2-trifluoroacetamide], the activity at 10 µM lay within 201 to 300%.

In the case of `CCS(=O)(=O)c1ccc2oc(-c3ccc4ccccc4c3O)nc2c1` [Example 437, 2-(5-(ethylsulfonyl)benzo[d]oxazol-2-yl)naphthalen-1-ol], the activity at 10 µM is over 401%.

For `COc1ccc(C(=O)Nc2ccc3oc(-c4ccc(C)cc4)nc3c2)cc1` [Example 20, 4-methoxy-N-(2-p-tolylbenzo[d]oxazol-5-yl)benzamide], the activity at 10 µM was under 200%.

`Clc1ccc(-c2nc3cc(-c4ccc(N5CCOCC5)cc4)ccc3o2)cc1` [Example 291, 2-(4-chlorophenyl)-5-(4-morpholinophenyl)benzo[d]oxazole]: the activity at 10 µM lay within 201 to 300%.

Turning to `CCN(CC)c1ccc(-c2nc3cc(-c4ccccc4)ccc3o2)cc1` [Example 145, N,N-diethyl-4-(5-phenylbenzo[d]oxazol-2-yl)aniline], the activity at 10 µM is under 200%.

For `Cc1ccc(-c2nc3cc(-c4ccccc4)ccc3o2)cc1` [Example 161, 5-phenyl-2-p-tolylbenzo[d]oxazole], the activity at 10 µM is 301 to 400%.

As for `COc1ccc(-c2ccc3oc(-c4ccc(C)cc4)nc3c2)cc1` [Example 199, 5-(4-methoxyphenyl)-2-p-tolylbenzo[d]oxazole], the activity at 10 µM is under 200%.

`CCN(CC)c1ccc(-c2nc3cc(NC(=O)c4cccnc4)ccc3o2)cc1` [Example 60, N-(2-(4-(diethylamino)phenyl)benzo[d]oxazol-5-yl)nicotinamide]: the activity at 10 µM lay within 201 to 300%.

As for `Nc1ccc2oc(N3CCOCC3)nc2c1` [Example 360, 2-morpholinobenzo[d]oxazol-5-amine], the activity at 10 µM is under 200%.

As for `Clc1ccc2nc(-c3ccccc3)oc2c1` [Example 112, 6-chloro-2-phenylbenzo[d]oxazole], the activity at 10 µM was under 200%.

On to `CC(=O)Nc1ccc2oc(-c3ccccc3)nc2c1` [Example 8, N-(2-phenylbenzo[d]oxazol-5-yl)acetamide], for which the activity at 10 µM is 201 to 300%.

As for `Nc1ccc2sc(-c3ccccc3Cl)nc2c1` [Example 282, 2-(2-chlorophenyl)benzo[d]thiazol-5-amine], the activity at 10 µM was over 401%.

Take `CCS(=O)(=O)c1ccc2oc(-c3ccc4occc4c3)nc2c1` [Example 445, 2-(benzofuran-5-yl)-5-(ethylsulfonyl)benzo[d]oxazole]: the activity at 10 µM is over 401%.

With `CCCc1nc2cc(N)ccc2o1` [Example 154, 2-propylbenzo[d]oxazol-5-amine], the activity at 10 µM is under 200%.

Take `Cc1ccc(-c2nc3cc(NC(=O)C(C)(C)C)ccc3o2)cc1` [Example 208, N-(2-p-tolylbenzo[d]oxazol-5-yl)pivalamide]: the activity at 10 µM lay within 201 to 300%.

On to `O=[N+]([O-])c1ccc2nc(-c3ccc(Cl)cc3)oc2c1` [Example 191, 2-(4-chlorophenyl)-6-nitrobenzo[d]oxazole], for which the activity at 10 µM was in the range of 201 to 300%.

In the case of `CC(C)C(=O)Nc1ccc2oc(-c3ccc(C(F)(F)F)cc3)nc2c1` [Example 127, N-(2-(4-(trifluoromethyl)phenyl)benzo[d]oxazol-5-yl)isobutyramide], the activity at 10 µM was under 200%.

Consider `CCC(=O)Nc1ccc2oc(-c3ccc(OC)cc3)nc2c1` [Example 136, N-(2-(4-methoxyphenyl)benzo[d]oxazol-5-yl)propionamide], for which the activity at 10 µM lay in the range of 301 to 400%.

With `O=C(Nc1ccc2oc(-c3cccnc3)nc2c1)c1ccc(-c2ccccc2)cc1` [Example 49, N-(2-(pyridin-3-yl)benzo[d]oxazol-5-yl)biphenyl-4-carboxamide], the activity at 10 µM is under 200%.

With `CCN(CC)c1ccc(-c2nc3cc(NC(=O)Cc4ccccc4)ccc3o2)cc1` [Example 73, N-(2-(4-(diethylamino)phenyl)benzo[d]oxazol-5-yl)-2-phenylacetamide], the activity at 10 µM is 201 to 300%.

In the case of `CC(C)C(=O)Nc1ccc2sc(-c3ccccc3Cl)nc2c1` [Example 295, N-(2-(2-chlorophenyl)benzo[d]thiazol-5-yl)isobutyramide], the activity at 10 µM was over 401%.

As for `CC(C)C(=O)Nc1ccc2oc(C3CCCCC3)nc2c1` [Example 248, N-(2-cyclohexylbenzo[d]oxazol-5-yl)isobutyramide], the activity at 10 µM is over 401%.

The test is the same for the next values; noted with them: luciferase reporter assay in murine H2K cells; classified relative to control.
On to `COc1ccc2oc(-c3cccc(N)c3)nc2c1` [Example 630], for which the Activity result is given as “++++ (Above 401% relative to control)”.

As for `Cc1ccc2nc(-c3ccc(NC(=O)CSc4nnc[nH]4)cc3)sc2c1` [Example 654], the Activity entry was “+++ (Between 301% and 400% relative to control)”.

For `CC(=O)Nc1ccc(-c2nc3cc(C)cc(C)c3o2)cc1` [Example 529], the Activity result was “++ (Between 201% and 300% relative to control)”.

In the case of `CC(C)(C)c1ccc2oc(-c3ccc(N)cc3)nc2c1` [Example 593], the Activity result is “+++ (Between 301% and 400% relative to control)”.

With `CC(=O)Nc1ccc2oc(-c3ccc(Cl)cc3Cl)nc2c1` [Example 517], the Activity entry is “++ (Between 201% and 300% relative to control)”.

On to `O=C(CSc1nc[nH]n1)Nc1ccc(-c2nc3ccccc3s2)cc1` [Example 685], for which the Activity entry is “++ (Between 201% and 300% relative to control)”.

As for `Cc1cc2nc(-c3ccc(N)cc3O)oc2cc1C` [Example 610], the Activity result is recorded as “++++ (Above 401% relative to control)”.

On to `Cc1ccc2oc(-c3cc(NC(=O)c4cncc(Br)c4)ccc3O)nc2c1` [Example 684], for which the Activity entry is “++ (Between 201% and 300% relative to control)”.

For `CN(C)c1ccc(-c2nc3cc([N+](=O)[O-])ccc3[nH]2)cc1` [Example 509], the Activity entry is “++ (Between 201% and 300% relative to control)”.

Turning to `c1ccc2nc(-c3nc4ccccc4s3)ccc2c1` [Example 639], the Activity entry is “+++ (Between 301% and 400% relative to control)”.

In the case of `Nc1cc(-c2nc3ccccc3[nH]2)ccc1Cl` [Example 653], the Activity result was “+++ (Between 301% and 400% relative to control)”.

`CC(=O)c1c(C)nc(Nc2nc3ccccc3o2)nc1C` [Example 681]: the Activity entry was “++ (Between 201% and 300% relative to control)”.

Take `CCOCC(=O)Nc1ccc(-c2nc3ccc(C)cc3s2)cc1` [Example 657]: the Activity result is “+++ (Between 301% and 400% relative to control)”.

As for `Nc1ccc(-c2nc3ccccc3s2)cc1` [Example 601], the Activity entry is “+++ (Between 301% and 400% relative to control)”.

`Cc1ccc(S(=O)(=O)Nc2ccc3[nH]c(-c4ccco4)nc3c2)cc1` [Example 536]: the Activity result is “+ (Up to 200% relative to control)”.

Consider `Cc1ccc(-c2nc3cc(N)ccc3o2)c(Cl)c1` [Example 527], for which the Activity result is “++ (Between 201% and 300% relative to control)”.
